From article PMC5159239 (Cell host & microbe, 2016)

Experiments:
[1] = molecular target: UL37C (571-1123) (Human alphaherpesvirus 1 strain 17, UniProt P10221); assay: tandem mass spectrometry of cysteine labelling; assay type: binding; conditions: covalent at C819; 45 min; also tested at 1 µM
[2] = molecular target: the molecule itself; assay: SEC

Sequence of UL37C (571-1123) (P10221 571-1123): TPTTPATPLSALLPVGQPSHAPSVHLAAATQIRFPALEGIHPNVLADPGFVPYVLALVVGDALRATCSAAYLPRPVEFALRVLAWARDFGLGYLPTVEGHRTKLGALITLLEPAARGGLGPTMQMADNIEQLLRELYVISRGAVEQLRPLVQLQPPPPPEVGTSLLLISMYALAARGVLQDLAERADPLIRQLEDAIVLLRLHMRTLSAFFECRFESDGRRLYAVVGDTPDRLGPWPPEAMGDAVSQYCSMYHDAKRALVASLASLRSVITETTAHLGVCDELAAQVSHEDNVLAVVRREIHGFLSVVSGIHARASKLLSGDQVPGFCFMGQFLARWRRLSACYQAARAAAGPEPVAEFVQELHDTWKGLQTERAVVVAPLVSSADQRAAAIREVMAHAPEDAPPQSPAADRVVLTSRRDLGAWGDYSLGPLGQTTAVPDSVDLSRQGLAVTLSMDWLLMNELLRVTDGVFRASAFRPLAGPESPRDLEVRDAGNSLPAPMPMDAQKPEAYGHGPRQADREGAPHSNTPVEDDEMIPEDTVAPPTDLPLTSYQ

Molecule	% C819 labelled at 10 μM [1] [%]	binding result [2]
O=C(CCl)NCO [2-Chloro-N-(hydroxymethyl)acetamide]	42.5	–
RIG-I-QQ (natural protein) MTTEQRRSLQAFQDYIRKTLDPTYILSYMAPWFREEEVQYIQAEKNNKGPMEAATLFLKFLLELQEEGWFRGFLDALDHAGYSGLYEAIESWDFKKIEKLEEYRLLLKRLQPEFKTRIIPTDIISDLSECLINQECEEILQICSTKGMMAGAEKLVECLLRSDKENWPKTLKLALEKERNKFSELWIVEKGIKDVETEDLEDKMETSDIQIFYQEDPECQNLSENSCPPSEVSDTNLYSPFKPRNYQLELALPAMKGKNTIICAPTGCGKTFVSLLICEHHLKKFPQGQKGKVVFFANQIPVYEQQKSVFSKYFERHGYRVTGISGATAENVPVEQIVENNDIIILTPQILVNNLKKGTIPSLSIFTLMIFDECHNTSKQHPYNMIMFNYLDQKLGGSSGPLPQVIGLTASVGVGDAKNTDEALDYICKLCASLDASVIATVKHNLEELEQVVYKPQKFFRKVESRISDKFKYIIAQLMRDTESLAKRICKDLEQLSQIQNREFGTQKYEQWIVTVQKACMVFQMPDKDEESRICKALFLYTSHLRKYQDALIISEHARMKDALDYLKDFFSNVRAAGFDEIEQDLTQRFEEKLQELESVSRDPSNENPKLEDLCFILQEEYHLNPETITILFVKTRALVDALKNWIEGNPKLSFLKPGILTGRGKTNQNTGMTLPAQKCILDAFKASGDHNILIATSVADEGIDIAQCNLVILYEYVGNVIKMIQTRGRGRARGSKCFLLTSNAGVIEKEQINMYKEKMMNDSILRLQTWDEAVFREKILHIQTHEKFIRDSQEKPKPVPDKENKKLLCRKCKALACYTADVRVIEECHYTVLGDAFKECFVSRPHPKPKQFSSFEKRAKIFCARQNCSHDWGIHVKYKTFEIPVIKIESFVVEDIATGVQTLYSKWKDFHFEKIPFDPAEMSK	–	binds
